# Like-named read-outs stand apart in the source and are kept apart here.
# Key:
# [1] = test system: Puccinia triticina; synonym: Puccinia recondita f. sp. tritici (PUCCRT); assay: Wheat brown rust (PUCCRT) whole-plant fungicidal test; format: in vivo; details: topical, low volume (track spray) application, 121.5 g/H
# [2] = test system: Erysiphe cichoracearum (ERYSCI); assay: Powdery mildew of cucumber (ERYSCI) whole-plant fungicidal test; format: in vivo; details: 1 Day Protectant
# [3] = test system: Blumeria graminis f. sp. hordei; synonym: Erysiphe graminis f. sp. hordei (ERYSGH); assay: Barley powdery mildew (ERYSGH) whole-plant fungicidal test; format: in vivo; details: 1 Day Protectant
# Description: (§1) All fungicides were evaluated using the aforementioned method for their activity vs. all target diseases, unless stated otherwise. Wheat leaf blotch and brown rust activity were also evaluated using track spray applications, in which case the fungicides were formulated as EC formulations, containing 0.1% Trycol 5941 in the spray solutions. Wheat plants (variety Yuma) were grown from seed in a greenhouse in 50% mineral soil/50% soil-less Metro mix until the first leaf was fully emerged, with 7-10 seedlings per pot. These plants were inoculated with an aqueous spore suspension of Septoria tritici either prior to or after fungicide treatments. After inoculation the plants were kept in 100% relative humidity (one day in a dark dew chamber followed by two to three days in a lighted dew chamber at 20° C.) to permit spores to germinate and infect the leaf. The plants were then transferred to a greenhouse set at 20° C. for disease to develop. When disease symptoms were fully expressed on the 1st leaves of untreated plants, infection levels were assessed on a scale of 0 to 100 percent disease severity. Percent disease control was calculated using the ratio of disease severity on treated plants relative to untreated plants. Barley seedlings (variety Harrington) were propagated in soil-less Metro mix, with each pot having 8 to 12 plants, and used in the test when first leaf was fully emerged. […]
# [4] = test system: Rhyncosporium secalis (RHYNSE); assay: Barley scald (RHYNSE) whole-plant fungicidal test; format: in vivo; details: 1 Day Protectant
# Description: as §1
# [5] = test system: Phakopsora pachyrhizi (PHAKPA); assay: Asian soybean rust (PHAKPA) whole-plant fungicidal test
compound,measurement,setting,value
CCCC[C@@H]1[C@@H](Cc2ccc(C(F)(F)F)cc2)CCC[C@H](NC(=O)c2nccc(OC)c2OCOC(C)=O)C(=O)O[C@H]1C [Compound 3],pest or weed control at 121.5 g/ha,"[1]; 24 h, 1 Day Protectant, read-out: Low Volume activity at 121.5 g/H PUCCRT 1DP (% disease control rating)",> 70%
same,pest or weed control at 121.5 g/ha,"[1]; 72 h, 3 Day Curative, read-out: Low Volume activity at 121.5 g/H PUCCRT 3DC (% disease control rating)",< 70%
same,Disease Control at 100 ppm ERYSCI 1DP,[2],A (>70)
same,Disease Control at 100 ppm ERYSGH 1DP,[3],A (>70)
same,Disease Control at 100 ppm RHYNSE 1DP,[4],B (≦70)
same,Disease Control at 25 ppm PHAKPA 1DP,[5]; 1 Day Protectant,B (≦70)
same,Disease Control at 25 ppm PHAKPA 3DC,[5]; 3 Day Curative,B (≦70)
